Patent publication US20050095663A1, “Process for screening fungitoxic compounds” (priority 2002, published 2005)
Read-outs that look alike come from different tables or passages of the source.

How the values were obtained:
[1] = tested on: Saccharomyces cerevisiae (strain X2180-1A); assay: Effect of fatty acids on fungitoxicity (growth inhibition, absorbance at 700 nm); assay type: cell-based; conditions: 22 h
Procedure: (§1) Fifty ml of YPG culture medium (10 g yeast extract, 20 g peptone, and 20 g glucose per liter of water) in a 250 ml Erlenmeyer flask was inoculated with Saccharomyces cereviae (strain X2180-1A) to give an absorbance at 700 nm of 0.02. This culture was incubated for 18 h at 30° C. with shaking at 225 rpm. The cells were harvested by centrifugation, washed once with SD medium (6.7 g Bacto-yeast nitrogen base and 20 g glucose per liter of water), and suspended in SD medium to give an Absorbance at 700 nm of 0.04. Aliquots (5 ml) of cell suspension were distributed in 20 ml capacity glass vials. Treatments containing compound 1 or cerulenin received 25 μl of a solution of compound in dimethylsulfoxide (DMSO) at 240 ppm or 160 ppm, respectively. Control treatments without compound 1 or cerulenin received 25 ul DMSO. Treatments containing a fatty acid received 25 μl of a 2 mM solution of the fatty acid in a 1% solution of Triton X-100 providing a concentration of 10 μM. Treatments without fatty acid received 25 ul of 1% Triton X-100. All treatments were carried out in duplicate. Vials were incubated for 22 h at 30° C. with shaking at 225 rpm. Growth of the cells was then estimated by diluting the cells in each treatment 3-fold with SD medium and measuring the asorbance at 700 nm. The results in Table 3 show inhibition of growth expressed as a percentage of growth in DMSO controls containing Triton X-100 but lacking Compound 1, cerulenin or fatty acid.

[2] = target: T1, Yeast Δ-9 fatty acid desaturase (Saccharomyces cerevisiae, UniProt P21147); assay: Yeast microsomal Δ-9 fatty acid desaturase assay (14C-palmitoyl-CoA to palmitoleic acid); assay type: biochemical
T1 construct: the resulting microsomal pellet suspended in 10 ml of ice-cold 0.1 M potassium phosphate buffer; endogenous in cells; host or cells: Saccharomyces cerevisiae ATCC strain 12341, microsomal fraction
T1 sequence (P21147 whole entry, stated change not applied): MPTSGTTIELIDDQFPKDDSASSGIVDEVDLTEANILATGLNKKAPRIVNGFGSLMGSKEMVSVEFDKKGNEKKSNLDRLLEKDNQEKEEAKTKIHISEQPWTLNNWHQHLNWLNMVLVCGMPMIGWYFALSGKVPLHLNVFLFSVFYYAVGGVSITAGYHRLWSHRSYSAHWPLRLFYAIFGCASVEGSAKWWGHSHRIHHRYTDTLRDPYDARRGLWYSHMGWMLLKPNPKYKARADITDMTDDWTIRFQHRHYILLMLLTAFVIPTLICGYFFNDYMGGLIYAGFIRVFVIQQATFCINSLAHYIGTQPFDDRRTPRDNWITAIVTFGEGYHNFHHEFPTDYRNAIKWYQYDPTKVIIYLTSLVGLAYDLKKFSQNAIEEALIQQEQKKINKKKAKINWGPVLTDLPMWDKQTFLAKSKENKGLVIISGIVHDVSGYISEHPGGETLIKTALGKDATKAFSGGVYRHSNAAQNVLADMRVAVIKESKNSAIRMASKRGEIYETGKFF
Procedure: The following method was used to prepare the microsomal Δ-9 fatty acid desaturase from yeast. Two 250 ml flasks containing 100 ml each of glucose-yeast extract medium (0.4% yeast extract and 2% glucose) were inoculated with Saccharomyces cerevisiae strain 12341 obtained from the American Type Culture Collection, and grown for 48 h at 30° C. with shaking at 250 rpm. The cells were used to inoculate a 4 liter flask containing 3.6 liters of medium. The cells were grown at 30° C. with gentle shaking at 90 rpm for 24 h. […]
Delta-9 Fatty acid desaturase assays were performed by measuring the desaturation of ^14C-palmitoyl-CoA to palmitoleic acid using 0.5 ml reaction mixtures containing 0.1 M potassium phosphate buffer, pH 7.2, 1 mM NADH and 26 μM ^14C-palmitoyl-CoA (0.028 μCi per assay) in 13×100 mm glass culture tubes. […] The upper cyclohexane layer was removed and 100 μI analyzed by HPLC on a Supelcosil LC-18 column (25×4.6 mm) with methanol-water-phosphoric acid (90:9.9:0.1, by volume) as the mobile phase at a flow rate of 1 ml/min. A Packard A120 RAM detector was used to determine the amounts of radioactivity in the palmitic and palmitoleic acid fractions. The percent inhibition of desaturation was determined by comparing the production of palmitoleic acid in assays containing compound 1 with production in assays containing DMSO alone. […]

[3] = tested on: S. cerevisiae; assay: Fatty acid composition of S. cerevisiae after treatment (capillary gas chromatography); assay type: cell-based, Saccharomyces cerevisiae; conditions: 18 h
Procedure: (§2) S. cerevisiae was grown in SD medium as 5 ml aliquots of cell suspension in 20 ml capacity glass vials as described in example 3 in the absence (controls) and presence of compound 1. Compound 1 was added as 25 μl of solution in DMSO, and controls received 25 ul DMSO alone. After growth for 18 h at 30° C. with shaking at 225 rpm, inhibition of growth by compound 1 was determined as described in example 3, and the fatty acid composition was determined as follows. The cells were centrifuged in 20 ml borosilicate glass culture tubes at 2000 rpm. The supernatant was decanted, and the cells were re-suspended in 10 ml of water and re-centrifuged at 2000 rpm. The supernatant was decanted, and the cells were saponified by heating at 80° C. for 1 hour in 2.5 ml of 10% potassium hydroxide solution in 90% methanol/10% water. The non-saponifiable lipids were removed by extracting the basic solution with 2×3 ml of cyclohexane. The basic solution was then acidified to pH 2 with 6N hydrochloric acid, and the acidic solution was again extracted with 2×3 ml of cyclohexane. These extracts were analyzed directly by capillary gas chromatography using an HP5890 gas chromatograph equipped with a Restek Stabilwax DB capillary column (30m×0.53 mm i.d.×0.25 μm film thickness) and a flame ionization detector. Analyses were run at 225° C. isothermally, and compared to a sample free fatty acid mixture prepared from authentic standards purchased from Sigma.

[4] = target: T2, Rat liver Δ-9 fatty acid desaturase (Rattus norvegicus, UniProt P07308); assay: Rat liver microsomal Δ-9 fatty acid desaturase assay (14C-palmitoyl-CoA to palmitoleic acid); assay type: biochemical
T2 construct: The upper gelatinous layer is the microsomal fraction; from tissue; host or cells: liver of Sprague-Dawley rats (starved, then fed a fat-free diet), microsomal fraction
T2 sequence (P07308 1-358): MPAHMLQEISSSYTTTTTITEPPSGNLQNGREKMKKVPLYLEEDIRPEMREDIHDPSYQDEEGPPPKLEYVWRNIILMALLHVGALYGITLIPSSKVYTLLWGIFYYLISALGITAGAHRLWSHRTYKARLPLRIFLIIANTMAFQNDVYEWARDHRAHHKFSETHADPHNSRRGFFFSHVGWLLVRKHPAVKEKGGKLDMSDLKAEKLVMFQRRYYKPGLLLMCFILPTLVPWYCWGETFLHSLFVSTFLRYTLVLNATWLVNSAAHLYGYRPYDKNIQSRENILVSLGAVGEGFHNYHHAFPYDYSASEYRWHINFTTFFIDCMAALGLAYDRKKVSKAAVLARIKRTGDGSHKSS
Procedure: The following method was used to prepare the microsomal Δ-9 fatty acid desaturase from rat liver. Sprague-Dawley rats weighing between 120 and 180 g were fed with Purina laboratory chow, starved for 48 h, then fed with a “Fat-Free” test diet (Nutritional Biochemical Corporation) for 20 h. Livers were removed and placed in cold […] Tris-acetate buffer, pH 8.1, containing 0.25 M sucrose and 1 mM EDTA. The tissue was washed twice with 10 volumes of cold buffer, blotted dry and weighed. The tissue was minced and homogenized in 5 ml of buffer per gram of tissue using a glass homogenizer with a loose fitting Teflon pestle. […]
Delta-9 Fatty acid desaturase assays were performed by measuring the desaturation of ^14C-palmitoyl-CoA to palmitoleic acid using 0.5 ml reaction mixtures containing 0.1 M potassium phosphate buffer, pH 7.2, 1 mM NADH and 26 μM ^14C-palmitoyl-CoA (0.028 μCi per assay) in 13×100 mm glass culture tubes. […] The upper cyclohexane layer was removed and 100 μI analyzed by HPLC on a Supelcosil LC-18 column (25×4.6 mm) with methanol-water-phosphoric acid (90:9.9:0.1, by volume) as the mobile phase at a flow rate of 1 ml/min. A Packard A120 RAM detector was used to determine the amounts of radioactivity in the palmitic and palmitoleic acid fractions. […] The concentration of compound 1 which inhibited production of palmitoleic acid by 50% was determined from dose-response curves.

[5] = tested on: S. cerevisiae; assay: Growth inhibition of S. cerevisiae by compound 1; assay type: cell-based; conditions: Saccharomyces cerevisiae, 18 h
Procedure: as §1, §2

[6] = tested on: Candida albicans (American Type Culture Collection strain 10231); assay: Control of Candida albicans infection in mice; assay type: in vivo; conditions: for % Survival: mortality over 10 days
Procedure: Compound 1 (6-(4-chlorophenyl)-2-(2′-pentynyl)pyridazinone, described as compound 109 in European Patent Publication No. EP 478 195 A1) in 5% dimethylsulfoxide (DMSO) in saline solution was administered intraperitoneally 1 h before and at 4, 24, 48 and 72 h after intravenous inoculation with Candida albicans (American Type Culture Collection strain 10231). Ten mice were used for each treatment. Mortality was recorded over a period of 10 days.

[7] = microsomal preparation, 26 μM 14C-palmitoyl-CoA, 30° C., 5 min

SMILES: C/C=C/C/C=C/CCC(=O)[C@H]1O[C@H]1C(N)=O [Cerulenin, cerulenin, reference compound]
- inhibition at 0.8 ppm ([1]; read-out: % Inhibition of growth, 0.8 ppm, no fatty acid, 22 h): 35.6%
- inhibition at 0.8 ppm ([1]; read-out: % Inhibition of growth, 0.8 ppm, oleic acid 10 μM, 22 h): 3.3%
- inhibition at 0.8 ppm ([1]; read-out: % Inhibition of growth, 0.8 ppm, palmitic acid 10 μM, 22 h): 15.2%
- inhibition at 0.8 ppm ([1]; read-out: % Inhibition of growth, 0.8 ppm, palmitoleic acid 10 μM, 22 h): 4.5%
- inhibition at 0.8 ppm ([1]; read-out: % Inhibition of growth, 0.8 ppm, pentadecanoic acid 10 μM, 22 h): 20.3%

SMILES: CCC#CCn1nc(-c2ccc(Cl)cc2)ccc1=O [Compound 1, 6-(4-chlorophenyl)-2-(2′-pentynyl)pyridazinone]
- Inhibition of fungal Δ-9 fatty acid desaturase (in words) [2]: potent inhibitor
- Yeast desaturase EC50 [2, 7]: 0.055 ppm
- oleic acid per milligram dry weight of cells ([3]; 0.0625 μg/ml): 8.5 µg/mg
- palmitic acid per milligram dry weight of cells ([3]; 0.0625 μg/ml): 7.1 µg/mg
- palmitoleic acid per milligram dry weight of cells ([3]; 0.0625 μg/ml): 14.2 µg/mg
- stearic acid per milligram dry weight of cells ([3]; 0.0625 μg/ml): 2.8 µg/mg
- oleic acid per milligram dry weight of cells ([3]; 0.125 μg/ml): 4.3 µg/mg
- palmitic acid per milligram dry weight of cells ([3]; 0.125 μg/ml): 6.5 µg/mg
- palmitoleic acid per milligram dry weight of cells ([3]; 0.125 μg/ml): 14 µg/mg
- stearic acid per milligram dry weight of cells ([3]; 0.125 μg/ml): 3.1 µg/mg
- oleic acid per milligram dry weight of cells ([3]; 0.25 μg/ml): 2.7 µg/mg
- palmitic acid per milligram dry weight of cells ([3]; 0.25 μg/ml): 6 µg/mg
- palmitoleic acid per milligram dry weight of cells ([3]; 0.25 μg/ml): 3 µg/mg
- stearic acid per milligram dry weight of cells ([3]; 0.25 μg/ml): 3 µg/mg
- oleic acid per milligram dry weight of cells ([3]; 0.5 μg/ml): 1.1 µg/mg
- palmitic acid per milligram dry weight of cells ([3]; 0.5 μg/ml): 5.2 µg/mg
- palmitoleic acid per milligram dry weight of cells ([3]; 0.5 μg/ml): 1 µg/mg
- stearic acid per milligram dry weight of cells ([3]; 0.5 μg/ml): 4.7 µg/mg
- oleic acid per milligram dry weight of cells ([3]; 1 μg/ml): 1.2 µg/mg
- palmitic acid per milligram dry weight of cells ([3]; 1 μg/ml): 6.7 µg/mg
- palmitoleic acid per milligram dry weight of cells ([3]; 1 μg/ml): 0 µg/mg
- stearic acid per milligram dry weight of cells ([3]; 1 μg/ml): 5 µg/mg
- oleic acid per milligram dry weight of cells ([3]; 2 μg/ml): 0.5 µg/mg
- palmitic acid per milligram dry weight of cells ([3]; 2 μg/ml): 5 µg/mg
- palmitoleic acid per milligram dry weight of cells ([3]; 2 μg/ml): 0 µg/mg
- stearic acid per milligram dry weight of cells ([3]; 2 μg/ml): 4.2 µg/mg
- inhibition at 1.2 ppm ([1]; no fatty acid): 76.9%
- inhibition at 1.2 ppm ([1]; oleic acid 10 μM): 18.7%
- inhibition at 1.2 ppm ([1]; palmitic acid 10 μM): 95.5%
- inhibition at 1.2 ppm ([1]; palmitoleic acid 10 μM): 21.8%
- inhibition at 1.2 ppm ([1]; pentadecanoic acid 10 μM): 96.7%
- Inhibition of mammalian Δ-9 fatty acid desaturase (in words) [4]: does not inhibit
- Rat liver desaturase EC50 [4, 7]: >100 ppm
- inhibition at 0.0625 µg/mL ([5]; 0.0625 μg/ml): 10.1%
- inhibition at 0.125 µg/mL ([5]; 0.125 μg/ml): 14.3%
- inhibition at 0.25 µg/mL ([5]; 0.25 μg/ml): 19.1%
- inhibition at 0.5 µg/mL ([5]; 0.5 μg/ml): 38.7%
- inhibition at 1 µg/mL ([5]; 1 μg/ml): 54.4%
- inhibition at 2 µg/mL ([5]; 2 μg/ml): 66.4%
- Inhibition of Candida albicans infection in mice (in words) [6]: effective inhibitor
- % Survival ([6]; 10 mg/kg): 20%
- % Survival ([6]; 30 mg/kg intraperitoneally 1 h before and 4, 24, 48, 72 h after i.v. inoculation): 40%
- % Survival ([6]; 100 mg/kg intraperitoneally 1 h before and 4, 24, 48, 72 h after i.v. inoculation): 50%

SMILES: C[C@@H]1[C@H](O)[C@@H](C)/C=C/C=C/C=C/C=C/C=C/C=C/C=C/[C@H](O[C@@H]2O[C@H](C)[C@@H](O)[C@H](N)[C@@H]2O)C[C@@H]2O[C@](O)(C[C@@H](O)C[C@@H](O)[C@H](O)CC[C@@H](O)C[C@@H](O)CC(=O)O[C@H]1C)C[C@H](O)[C@H]2C(=O)O [Amphotericin B, reference compound]
- % Survival ([6]; 10 mg/kg): 100%
